Measurements: patent publication US20260070917A1, “CYCLIN DEPENDENT KINASE DEGRADERS AND METHODS OF USE THEREOF” (Differentiated Therapeutics Inc, priority 2023, published 2026)
Like-named read-outs stand apart in the source and are kept apart here.

Key:
Assay type in all cases: cell-based
[1] = molecular target: T1, CDK2 (Homo sapiens, UniProt P24941); test: HiBit Assay Protocol for CDK2 (HIBIT protein quantification, degradation); conditions: HEK293-CDK2-Hibit cells, compound treatment for 6 hours; for DC50: ABS DC50
T1 construct: host or cells: HEK293-CDK2-Hibit
Method in brief: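 HEK293 cells expressing HiBiT-tagged CDK2 were seeded overnight, then treated 6 h with a 3-fold, 10-point compound dilution series. CDK2 levels were read as luminescence after lytic HiBiT/LgBiT detection, normalised to DMSO-only and medium-only controls, and DC50 derived by curve fitting.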

[2] = molecular target: T2, CCNE1 (Homo sapiens, UniProt P24864); test: HiBit Assay Protocol for CCNE1 (HIBIT protein quantification, degradation); conditions: HEK293-CCNE1-Hibit cells, compound treatment for 6 hours
T2 construct: host or cells: HEK293-CCNE1-Hibit
Method in brief: (§1)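 HEK293 cells expressing HiBiT-tagged CCNE1 were seeded overnight, then treated 6 h with a 3-fold, 10-point compound dilution series. HiBiT levels were read by lytic LgBiT luminescence and normalised to DMSO-only (high) and medium-only (low) controls. DC50 was derived by curve fitting.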

[3] = molecular target: T3, CCNE1 (Homo sapiens, UniProt P24864+P24941); test: as above; conditions: HEK293-CCNE1-Hibit cells, compound treatment for 6 hours, ABS DC50
T3 construct: host or cells: HEK293-CCNE1-Hibit
Method in brief: as §1

[4] = molecular target: T4, CDK9 (Homo sapiens, UniProt P50750); test: HiBit Assay Protocol for CDK9 (HIBIT protein quantification, degradation); conditions: HEK293-CDK9-Hibit cells, compound treatment for 6 hours; for Dmax: read-out: CDK9 HIBIT Protein Quantification Maximum; for DC50: ABS DC50
T4 construct: host or cells: HEK293-CDK9-Hibit
Method in brief: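 HEK293 cells carrying HiBiT-tagged CDK9 treated 6 h with compounds in a 3-fold, 10-point dilution series. CDK9 level read by lytic Nano-Glo HiBiT/LgBiT luminescence and normalized to 0.1% DMSO (high) and medium-only (low) controls. DC50 from curve fitting.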

T2 sequence (P24864 whole entry): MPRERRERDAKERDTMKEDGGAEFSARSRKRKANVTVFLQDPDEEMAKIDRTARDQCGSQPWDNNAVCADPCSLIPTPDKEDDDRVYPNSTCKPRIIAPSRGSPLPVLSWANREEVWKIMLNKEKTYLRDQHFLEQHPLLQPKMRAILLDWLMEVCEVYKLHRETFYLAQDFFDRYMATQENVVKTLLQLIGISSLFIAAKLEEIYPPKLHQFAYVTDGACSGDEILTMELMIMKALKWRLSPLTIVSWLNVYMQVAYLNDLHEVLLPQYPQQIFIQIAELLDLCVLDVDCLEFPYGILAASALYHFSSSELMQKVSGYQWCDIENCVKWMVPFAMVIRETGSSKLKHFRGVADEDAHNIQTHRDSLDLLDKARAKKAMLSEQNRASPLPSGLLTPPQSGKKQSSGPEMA
T3 sequence (P24864 whole entry, one chain of several): as the sequence (P24864 whole entry) above
T4 sequence (P50750 whole entry): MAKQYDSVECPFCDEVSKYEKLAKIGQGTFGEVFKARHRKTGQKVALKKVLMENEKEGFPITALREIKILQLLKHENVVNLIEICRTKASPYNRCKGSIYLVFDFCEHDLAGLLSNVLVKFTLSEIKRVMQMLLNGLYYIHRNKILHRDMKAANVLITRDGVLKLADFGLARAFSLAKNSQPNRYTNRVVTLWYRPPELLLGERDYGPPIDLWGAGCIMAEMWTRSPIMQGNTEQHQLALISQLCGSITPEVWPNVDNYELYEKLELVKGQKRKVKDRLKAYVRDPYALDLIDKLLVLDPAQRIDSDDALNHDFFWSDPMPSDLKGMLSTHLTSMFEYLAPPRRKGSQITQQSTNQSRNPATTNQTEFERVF

| Structure (SMILES) | CDK2 HIBIT Protein Quantification Maximum [1] [%] | DC50 [1] [nM] | CCNE1 HIBIT Protein Quantification Maximum [2] [%] | DC50 [3] [nM] | Dmax ([4]; 6 h) [%] | DC50 [4] [nM] | Dmax [4] [%] |
| --- | --- | --- | --- | --- | --- | --- | --- |
| Cn1nc(N2CCC(=O)NC2=O)c2cccc(C3CCN(Cc4cccc(S(=O)(=O)N5CCC(Nc6ncc7c(n6)N([C@H]6CCC[C@H](O)C6)C(=O)C76CC6)CC5)c4)CC3)c21 (stereo in doubt) [Compound 146, 1-[7-(1-{[3-(4-{7′-[(1S,3S)-3-hydroxycyclohexyl]-6′-oxospiro[cyclopropane-1,5′-pyrrolo[2,3-d]pyrimidin]-2′-ylamino}piperidin-1-ylsulfonyl)phenyl]methyl}piperidin-4-yl)-1-methylindazol-3-yl]-1,3-diazinane-2,4-dione] | 76 | 30 | 82 | 36.2 |  |  | 4 |
| CC1CCCC1N1C(=O)C2(CC2)c2cnc(NC3CCN(S(=O)(=O)N4CCC5(CCCN5C(=O)CCCCCc5cccc6c5n(C)c(=O)n6C5CCC(=O)NC5=O)C4)CC3)nc21 (centres unmarked) [Compound 36] | 46 |  | 59 | 515 | 49 |  |  |
| CN(CCCN1CCC(c2cccc3c2n(C)c(=O)n3C2CCC(=O)NC2=O)CC1)S(=O)(=O)c1ccc(Nc2ncc3c(n2)N([C@@H]2CCC[C@@H](O)C2)C(=O)C32CC2)cc1 (stereo partly drawn) [Compound 116, N-(3-(4-(1-(2,6-dioxopiperidin-3-yl)-3-methyl-2-oxo-2,3-dihydro-1H-benzo[d]imidazol-4-yl)piperidin-1-yl)propyl)-4-((7′-((1R,3R)-3-hydroxycyclohexyl)-6′-oxo-6′,7′-dihydrospiro[cyclopropane-1,5′-pyrrolo[2,3-d]pyrimidin]-2′-yl)amino)-N-methylbenzenesulfonamide] | 86 | 14 | 75 | 23.2 | 81 | 74.9 |  |
| O=C1CCC(N2Cc3cc(CN4CC(Oc5cccc(S(=O)(=O)c6ccc(Nc7ncc8c(n7)N([C@@H]7CCC[C@@H](O)C7)C(=O)C87CC7)cc6)c5)C4)ccc3C2=O)C(=O)N1 (stereo partly drawn) [Compound 125, 3-[5-({3-[3-(4-{7′-[(1R,3R)-3-hydroxycyclohexyl]-6′-oxospiro[cyclopropane-1,5′-pyrrolo [2,3-d]pyrimidin]-2′-ylamino}benzenesulfonyl)phenoxy]azetidin-1-yl}methyl)-1-oxo-3H-isoindol-2-yl]piperidine-2,6-dione] | 54 | 4 | 81 | 2.35 |  |  | 13 |
| O=C1CCC(N2Cc3cc(N4CCN(CC5CCN(c6cccc(S(=O)(=O)c7ccc(Nc8ncc9c(n8)N([C@@H]8CCC[C@@H](O)C8)C(=O)C98CC8)cc7)c6)CC5)CC4)ccc3C2=O)C(=O)N1 (stereo partly drawn) [Compound 126, 3-{5-[4-({1-[3-(4-{7′-[(1R,3R)-3-hydroxycyclohexyl]-6′-oxospiro [cyclopropane-1,5′-pyrrolo[2,3-d]pyrimidin]-2′-ylamino}benzenesulfonyl)phenyl]piperidin-4-yl}methyl)piperazin-1-yl]-1-oxo-3H-isoindol-2-yl}piperidine-2,6-dione] | 66 | 6 | 71 | 29.6 |  | 33.4 | 84 |

Continued, in another order:

| CDK2 HIBIT Protein Quantification Maximum [1] [%] | DC50 [1] [nM] | CCNE1 HIBIT Protein Quantification Maximum [2] [%] | DC50 [3] [nM] | Dmax ([4]; 6 h) [%] | DC50 [4] [nM] | Structure (SMILES) | Dmax [4] [%] |
| --- | --- | --- | --- | --- | --- | --- | --- |
| 89 | 3.81 | 61 | 9.88 | 13 |  | CC(c1cc(S(=O)(=O)N2CC[C@H](Nc3ncc4c(n3)N([C@@H]3CCC[C@@H](O)C3)C(=O)C43CC3)[C@H](F)C2)ccc1F)N1CCC(c2ccc3c(N4CCC(=O)NC4=O)nn(C)c3c2)CC1 (single isomer, unassigned) [Compound 200, 1-(6-{1-[(1R*)-1-{2-Fluoro-5-[(3R,4S)-3-fluoro-4-{7′-[(1R,3R)-3-hydroxycyclohexyl]-6′-oxospiro[cyclopropane-1,5′-pyrrolo[2,3-d]pyrimidin]-2′-ylamino}piperidin-1-ylsulfonyl]phenyl}ethyl]piperidin-4-yl}-1-methylindazol-3-yl)-1,3-diazinane-2,4-dione] |  |
| 78 | 10 | 64 | 7.43 | 65 | 21.8 | CC1CCCC1N1C(=O)C2(CC2)c2cnc(Nc3ccc(S(=O)(=O)N(C)CCCN4CCC(c5cccc6c5n(C)c(=O)n6C5CCC(=O)NC5=O)CC4)cc3)nc21 (centres unmarked) [Compound 117, N-(3-(4-(1-(2,6-dioxopiperidin-3-yl)-3-methyl-2-oxo-2,3-dihydro-1H-benzo[d]imidazol-4-yl)piperidin-1-yl)propyl)-N-methyl-4-((7′-(2-methylcyclopentyl)-6′-oxo-6′,7′-dihydrospiro [cyclopropane-1,5′-pyrrolo[2,3-d]pyrimidin]-2′-yl)amino)benzenesulfonamide] |  |
| 83 | 21.9 | 63 | 19.9 | 56 | 69.2 | CN(CCCN1CCC(c2cccc3c2n(C)c(=O)n3C2CCC(=O)NC2=O)CC1)S(=O)(=O)N1CCC(Nc2ncc3c(n2)N([C@@H]2CCC[C@@H](O)C2)C(=O)C32CC2)CC1 (stereo partly drawn) [Compound 131, N-(3-{4-[1-(2,6-Dioxopiperidin-3-yl)-3-methyl-2-oxo-1,3-benzodiazol-4-yl]piperidin-1-yl}propyl)-4-{7′-[(1R,3R)-3-hydroxycyclohexyl]-6′-oxospiro[cyclopropane-1,5′-pyrrolo[2,3-d]pyrimidin]-2′-ylamino}-N-methylpiperidine-1-sulfonamide] |  |
| 80 | 3.31 | 69 | 78.5 | 3 |  | C[C@H](c1cccc(S(=O)(=O)N2CCC(Nc3ncc4c(n3)N([C@@H]3CCC[C@@H](O)C3)C(=O)C43CC3)CC2)c1)N1CCC(c2ccc3c(N4CCC(=O)NC4=O)nn(C)c3c2)CC1 [Compound 151, 1-(6-{1-[(1R)-1-[3-(4-{7′-[(1R,3R)-3-hydroxycyclohexyl]-6′-oxospiro[cyclopropane-1,5′-pyrrolo[2,3-d]pyrimidin]-2′-ylamino}piperidin-1-ylsulfonyl)phenyl]ethyl]piperidin-4-yl}-1-methylindazol-3-yl)-1,3-diazinane-2,4-dione] |  |
| 80 | 2.64 | 56 | 5.96 | 13 |  | Cn1nc(N2CCC(=O)NC2=O)c2ccc(C3CCN(Cc4cccc(S(=O)(=O)N5CC[C@@H](Nc6ncc7c(n6)N([C@@H]6CCC[C@@H](O)C6)C(=O)C76CC6)[C@H](F)C5)c4)CC3)cc21 [Compound 158] |  |
| 68 | 2.83 | 54 | 5.99 | 49 |  | Cc1c(CN2CCC(c3ccc4c(N5CCC(=O)NC5=O)nn(C)c4c3)CC2)cccc1S(=O)(=O)N1CCC(Nc2ncc3c(n2)N([C@@H]2CCC[C@@H](O)C2)C(=O)C32CC2)CC1 [Compound 159, 1-[6-(1-{[3-(4-{7′-[(1R,3R)-3-Hydroxycyclohexyl]-6′-oxospiro [cyclopropane-1,5′-pyrrolo[2,3-d]pyrimidin]-2′-ylamino}piperidin-1-ylsulfonyl)-2-methylphenyl]methyl}piperidin-4-yl)-1-methylindazol-3-yl]-1,3-diazinane-2,4-dione] |  |
| 85 | 2.63 | 54 | 6.18 | 12 |  | C[C@@H](C1CC1)N1C(=O)C2(CC2)c2cnc(NC3CCN(S(=O)(=O)c4cccc(CN5CCC(c6ccc7c(N8CCC(=O)NC8=O)nn(C)c7c6)CC5)c4)CC3)nc21 [Compound 164, 1-[6-(1-{[3-(4-{7′-[(1S)-1-Cyclopropylethyl]-6′-oxospiro[cyclopropane-1,5′-pyrrolo[2,3-d]pyrimidin]-2′-ylamino}piperidin-1-ylsulfonyl)phenyl]methyl}piperidin-4-yl)-1-methylindazol-3-yl]-1,3-diazinane-2,4-dione] |  |
| 82 | 4.8 | 52 | 8.09 | 46 |  | CC1CN(Cc2cccc(S(=O)(=O)N3CCC(Nc4ncc5c(n4)N([C@@H]4CCC[C@@H](O)C4)C(=O)C54CC4)CC3)c2)CCC1c1ccc2c(N3CCC(=O)NC3=O)nn(C)c2c1 (stereo partly drawn) [Compound 182, 1-[6-(1-{[3-(4-{7′-[(1R,3R)-3-Hydroxycyclohexyl]-6′-oxospiro[cyclopropane-1,5′-pyrrolo[2,3-d]pyrimidin]-2′-ylamino}piperidin-1-ylsulfonyl)phenyl]methyl}-3-methylpiperidin-4-yl)-1-methylindazol-3-yl]-1,3-diazinane-2,4-dione] |  |
